This passage reports IC50 results from US9133104B2 (Chroma Therapeutics Ltd., priority 2005, dated 2015).

One experiment relates to Hela cancer cell line. Put plainly: Cell inhibition assay (SRB cell viability), Hela. The following applies: Homo sapiens, HeLa, 72 h, Hela cells, IC50 range. The experiment is classed as cell-based. Here is the method:
(§1) The corresponding cancer cell lines (Hela, U937 and HUT) growing in log phase were harvested and seeded at 1000 cells/well (200 ul final volume) into 96-well tissue culture plates. Following 24 h of cell growth cells were treated with compounds (final concentration of 20 uM). Plates were then re-incubated for a further 72 h before a sulphorhodamine B (SRB) cell viability assay was conducted according to Skehan 1990 J Natl Canc Inst 82, 1107-1112.
(§2) Data were expressed as a percentage inhibition of the control, measured in the absence of inhibitor, as follows:— % inhibition=100−((S^i/S^o)×100) where S^i is the signal in the presence of inhibitor and S^o is the signal in the presence of DMSO. IC50 values were determined by non-linear regression analysis, after fitting the results of eight data points to the equation for sigmoidal dose response with variable slope (% activity against log concentration of compound), using Graphpad Prism software. […] NT=Not tested

The next experiment relates to HUT cancer cell line. Briefly: Cell inhibition assay (SRB cell viability), HUT. The experiment is classed as cell-based. The following applies: HUT cells, 72 h, IC50 range. Here is the method: as §1, §2
Another experiment deals with U937 cancer cell line. Put plainly: Cell inhibition assay (SRB cell viability), U937. The experiment is classed as cell-based. To be noted: Homo sapiens, U-937, U937 cells, 72 h, IC50 range. The method, then:
as §1, §2

Experiment [1] concerns the target T1, histone deacetylase activity (HeLa nuclear extract).
T1 construct: Histone deacetylase activity from crude nuclear extract derived from HeLa cells was used for screening
Briefly: HDAC fluorescent activity assay (Biomol Fluor de Lys), HeLa nuclear extract. The experiment is classed as biochemical. The following applies: Fluor de Lys substrate, IC50 range. Summed up:
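Crude HeLa nuclear extract (20 mM Hepes, 100 mM KCl, 0.2 mM EDTA, 0.5 mM DTT, 0.2 mM PMSF, 20% glycerol) incubated with acetyl-lysine Fluor de Lys substrate ± inhibitor; developer generates fluorophore. Background-subtracted % of vehicle control; IC50 from eight-point variable-slope sigmoidal fit.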

A word on the IC50: it is the point on the concentration scale where inhibition reaches its midpoint. Read a low IC50 as greater potency in that assay.

Take `CC(C)(C)OC(=O)[C@@H](NC(=O)[C@H]1Cc2c([nH]c3ccccc23)CN1C(=O)CCCCCCC(=O)NO)c1ccccc1` [Compound 19, (S)-{[(R)-2-(7-Hydroxycarbamoyl-heptanoyl)-2,3,4,9-tetrahydro-1H-beta-carboline-3-carbonyl]-amino}-phenyl-acetic acid tert-butyl ester]: the half-maximal inhibitory concentration (IC50) in the experiment on Hela cancer cell line is 0.33 to 3.3 µM; with HUT cancer cell line it was 0.33 to 3.3 µM; in the experiment on U937 cancer cell line, 0.33 to 3.3 µM; in experiment [1] it was 0.101 to 1 µM.

Turning to `O=C(CCCCCCC(=O)Nc1ccc(CN[C@H](C(=O)OC2CCCC2)c2ccccc2)cc1)NO` [Compound 20, (S)-[4-(7-Hydroxycarbamoyl-heptanoylamino)-benzylamino]-phenyl-acetic acid cyclopentyl ester], the IC50 is 0.33 to 3.3 µM in the experiment on Hela cancer cell line, 0.33 to 3.3 µM with HUT cancer cell line, less than 0.33 µM with U937 cancer cell line and 0.101 to 1 µM in experiment [1].

Consider `O=C(CCCCCCC(=O)Nc1ccc(CN[C@H](C(=O)O)c2ccccc2)cc1)NO` [Compound 21, (S)-[4-(7-Hydroxycarbamoyl-heptanoylamino)-benzylamino]-phenyl-acetic acid], for which the IC50 is more than 3.3 µM in the experiment on Hela cancer cell line, more than 3.3 µM in the experiment on HUT cancer cell line, more than 3.3 µM in the experiment with U937 cancer cell line and 0.101 to 1 µM in experiment [1].

As for `O=C(CCCCCCC(=O)Nc1ccc(S(=O)(=O)N[C@H](C(=O)OC2CCCC2)c2ccccc2)cc1)NO` [Compound 22, (S)-[4-(7-Hydroxycarbamoyl-heptanoylamino)-benzenesulfonylamino]-phenyl-acetic acid cyclopentyl ester], the IC50 was in the range of 0.33 to 3.3 µM with Hela cancer cell line, 0.33 to 3.3 µM in the experiment with HUT cancer cell line, 0.33 to 3.3 µM in the experiment with U937 cancer cell line and 0.101 to 1 µM in experiment [1].

With `O=C(CCCCCCC(=O)Nc1ccc(S(=O)(=O)N[C@H](C(=O)O)c2ccccc2)cc1)NO` [Compound 23, (S)-[4-(7-Hydroxycarbamoyl-heptanoylamino)-benzenesulfonylamino]-phenyl-acetic acid], the IC50 in the experiment on Hela cancer cell line was more than 3.3 µM; in the experiment with HUT cancer cell line it was more than 3.3 µM; in the experiment on U937 cancer cell line, more than 3.3 µM; in experiment [1], 0.101 to 1 µM.

Consider `O=C(CCCCCCC(=O)N1CCc2c([nH]c3ccc(OCC(=O)N[C@H](C(=O)OC4CCCC4)c4ccccc4)cc23)C1)NO` [Compound 24, (S)-{2-[2-(7-Hydroxycarbamoyl-heptanoyl)-2,3,4,9-tetrahydro-1H-beta-carbolin-6-yloxy]-acetylamino}-phenyl-acetic acid cyclopentyl ester], for which the IC50 with Hela cancer cell line was more than 3.3 µM; with HUT cancer cell line, 0.33 to 3.3 µM; in the experiment on U937 cancer cell line it was more than 3.3 µM; in experiment [1] it was 0.101 to 1 µM.

`O=C(CCCCCCC(=O)N1CCc2c([nH]c3ccc(OCC(=O)N[C@H](C(=O)O)c4ccccc4)cc23)C1)NO` [Compound 25]: the IC50 with Hela cancer cell line is more than 3.3 µM; in the experiment with HUT cancer cell line, more than 3.3 µM; with U937 cancer cell line it was more than 3.3 µM; in experiment [1], 0.101 to 1 µM.

Consider `CCOC(=O)[C@H](Cc1ccccc1)NCc1cccc(NC(=O)CCCCCCC(=O)NO)c1` [Compound 26, (S)-2-[3-(7-Hydroxycarbamoyl-heptanoylamino)-benzylamino]-3-phenyl-propionic acid ethyl ester], for which the IC50 in the experiment with Hela cancer cell line is 0.33 to 3.3 µM; in the experiment on HUT cancer cell line, 0.33 to 3.3 µM; in the experiment with U937 cancer cell line, 0.33 to 3.3 µM; in experiment [1], less than 0.1 µM.

As for `O=C(CCCCCCC(=O)Nc1cccc(CN[C@@H](Cc2ccccc2)C(=O)OC2CCCC2)c1)NO` [Compound 28, (S)-2-[3-(7-Hydroxycarbamoyl-heptanoylamino)-benzylamino]-3-phenyl-propionic acid cyclopentyl ester], the IC50 fell in the range of 0.33 to 3.3 µM with Hela cancer cell line, 0.33 to 3.3 µM in the experiment with HUT cancer cell line, 0.33 to 3.3 µM in the experiment on U937 cancer cell line and 0.101 to 1 µM in experiment [1].

Take `CCOC(=O)[C@H](CCc1ccccc1)NCc1cccc(NC(=O)CCCCCCC(=O)NO)c1` [Compound 29, (S)-2-[3-(7-Hydroxycarbamoyl-heptanoylamino)-benzylamino]-4-phenyl-butyric acid ethyl ester]: the IC50 in the experiment with Hela cancer cell line was in the range of 0.33 to 3.3 µM; in the experiment on HUT cancer cell line, 0.33 to 3.3 µM; in the experiment with U937 cancer cell line it was 0.33 to 3.3 µM; in experiment [1], 0.101 to 1 µM.

Turning to `O=C(CCCCCCC(=O)Nc1cccc(CN[C@@H](CCc2ccccc2)C(=O)OC2CCCC2)c1)NO` [Compound 31, (S)-2-[3-(7-Hydroxycarbamoyl-heptanoylamino)-benzylamino]-4-phenyl-butyric acid cyclopentyl ester], the IC50 was 0.33 to 3.3 µM in the experiment with Hela cancer cell line, 0.33 to 3.3 µM in the experiment on HUT cancer cell line, less than 0.33 µM in the experiment with U937 cancer cell line and 0.101 to 1 µM in experiment [1].

With `CC(C)(C)OC[C@H](NCc1cccc(NC(=O)CCCCCCC(=O)NO)c1)C(=O)OC1CCCC1` [Compound 34, (S)-3-tert-Butoxy-2-[3-(7-hydroxycarbamoyl-heptanoylamino)-benzylamino]-propionic acid cyclopentyl ester], the IC50 in the experiment with Hela cancer cell line was 0.33 to 3.3 µM; in the experiment with HUT cancer cell line it was 0.33 to 3.3 µM; with U937 cancer cell line, less than 0.33 µM; in experiment [1] it was 0.101 to 1 µM.

Consider `CC(C)(C)OC(=O)[C@@H](NCc1cccc(NC(=O)CCCCCCC(=O)NO)c1)c1ccccc1` [Compound 35, (S)-[3-(7-Hydroxycarbamoyl-heptanoylamino)-benzylamino]-phenyl-acetic acid tert-butyl ester], for which the IC50 in the experiment with Hela cancer cell line was 0.33 to 3.3 µM; with HUT cancer cell line it was 0.33 to 3.3 µM; in the experiment on U937 cancer cell line, 0.33 to 3.3 µM; in experiment [1] it was 0.101 to 1 µM.

Regarding `O=C(CCCCCCC(=O)Nc1cccc(CN[C@H](C(=O)OC2CCCC2)c2ccccc2)c1)NO` [Compound 36, (S)-[3-(7-Hydroxycarbamoyl-heptanoylamino)-benzylamino]-phenyl-acetic acid cyclopentyl ester], the IC50 in the experiment with Hela cancer cell line is 0.33 to 3.3 µM; in the experiment with HUT cancer cell line it was 0.33 to 3.3 µM; with U937 cancer cell line, less than 0.33 µM; in experiment [1], less than 0.1 µM.

Take `O=C(CCCCCCC(=O)Nc1cccc(CN[C@H](C(=O)O)c2ccccc2)c1)NO` [Compound 37, (S)-[3-(7-Hydroxycarbamoyl-heptanoylamino)-benzylamino]-phenyl-acetic acid]: the IC50 was more than 3.3 µM in the experiment with Hela cancer cell line, more than 3.3 µM with HUT cancer cell line, more than 3.3 µM in the experiment on U937 cancer cell line and 0.101 to 1 µM in experiment [1].

For `O=C(CCCCCCC(=O)Nc1ccccc1CN[C@H](C(=O)OC1CCCC1)c1ccccc1)NO` [Compound 40, (S)-[2-(7-Hydroxycarbamoyl-heptanoylamino)-benzylamino]-phenyl-acetic acid cyclopentyl ester], the IC50 in the experiment with Hela cancer cell line was more than 3.3 µM; with HUT cancer cell line it was more than 3.3 µM; in the experiment with U937 cancer cell line, more than 3.3 µM; in experiment [1], more than 1 µM.

As to `O=C(CCCCCCC(=O)Nc1ccccc1CN[C@H](C(=O)O)c1ccccc1)NO` [Compound 41, (S)-[2-(7-Hydroxycarbamoyl-heptanoylamino)-benzylamino]-phenyl-acetic acid], the IC50 in the experiment on Hela cancer cell line is more than 3.3 µM; in the experiment on HUT cancer cell line, more than 3.3 µM; with U937 cancer cell line it was more than 3.3 µM; in experiment [1] it was more than 1 µM.

Regarding `O=C(CCCCCCC(=O)N1CCc2c([nH]c3ccccc23)C1CN[C@H](C(=O)OC1CCCC1)c1ccccc1)NO` (stereo partly drawn) [Compound 42, (S)-{[2-(7-Hydroxycarbamoyl-heptanoyl)-2,3,4,9-tetrahydro-1H-beta-carbolin-1-ylmethyl]-amino}-phenyl-acetic acid cyclopentyl ester], the half-inhibitory concentration (IC50) with Hela cancer cell line is 0.33 to 3.3 µM; in the experiment with HUT cancer cell line, 0.33 to 3.3 µM; in the experiment on U937 cancer cell line, 0.33 to 3.3 µM; in experiment [1], more than 1 µM.

On to `O=C(CCCCCCC(=O)N1CCc2c([nH]c3ccccc23)C1CN[C@H](C(=O)O)c1ccccc1)NO` (stereo partly drawn) [Compound 43, (S)-{[2-(7-Hydroxycarbamoyl-heptanoyl)-2,3,4,9-tetrahydro-1H-beta-carbolin-1-ylmethyl]-amino}-phenyl-acetic acid], for which the IC50 in the experiment on Hela cancer cell line was more than 3.3 µM; in the experiment with HUT cancer cell line, more than 3.3 µM; in the experiment on U937 cancer cell line it was more than 3.3 µM; in experiment [1], 0.101 to 1 µM.

Turning to `O=C(CCCCCCC(=O)N1Cc2ccccc2C[C@H]1C(=O)N[C@H](C(=O)OC1CCCC1)c1ccccc1)NO` [Compound 44, (S)-{[(S)-2-(7-Hydroxycarbamoyl-heptanoyl)-1,2,3,4-tetrahydro-isoquinoline-3-carbonyl]-amino}-phenyl-acetic acid cyclopentyl ester], the IC50 in the experiment on Hela cancer cell line is more than 3.3 µM; in the experiment on HUT cancer cell line it was 0.33 to 3.3 µM; with U937 cancer cell line, 0.33 to 3.3 µM; in experiment [1], 0.101 to 1 µM.

Consider `CCOC(=O)[C@@H](NC(=O)[C@@H]1Cc2ccccc2CN1C(=O)CCCCCCC(=O)NO)c1ccccc1` [Compound 46, (S)-{[(S)-2-(7-Hydroxycarbamoyl-heptanoyl)-1,2,3,4-tetrahydro-isoquinoline-3-carbonyl]-amino}-phenyl-acetic acid ethyl ester], for which the IC50 in the experiment with Hela cancer cell line is more than 3.3 µM; in the experiment on HUT cancer cell line, 0.33 to 3.3 µM; with U937 cancer cell line it was 0.33 to 3.3 µM; in experiment [1], more than 1 µM.
